These results are taken from patent US12234222B2, “Piperazine amide derivative, preparation method therefor, and use thereof in medicine” (ZHEJIANG HISUN PHARMACEUTICAL CO., LTD., priority 2019, dated 2025).

Usually IC50 stands for the concentration at which inhibition is half-maximal. Lower therefore signals greater potency in that assay.

The target in one test is KDR kinase (Homo sapiens (Human), UniProt P35968). Description: KDR control kinase activity, HTRF KinEASE-TK TR-FRET assay. It is filed as biochemical. As to conditions: inhibition of KDR kinase; 16000 nM~0.04 nM, 2% DMSO. How it is done:
(§1) In this method, HTRF®KinEASE-TK Tyrosine Kinase Kit (Cat. No. 62TK0PEB) of Cisbio was used to determine the degree of phosphorylation of biotinylated polypeptide substrates by time-resolved fluorescence energy transfer (TR-FRET). Human RET protein (RET kinase) was purchased from Carna bioscience (Japan, Cat. No. 08-159-5 μg).
(§2) The experimental steps are as follows: • (1) The test compound (the compound of the present disclosure, and compound 164 in WO2018017983A1 as a control) was dissolved in 100% DMSO to a final concentration of 10 mM. • (2) 4 μL of the test compound solution prepared in step (1) was dissolved with 46 μL of 100% DMSO, and the solution obtained in this step was numbered as No. 2. • (3) No. 2 solution was subjected to subsequent gradient dilution with a dilution factor of 5 times (i.e. 20 μL of 100% DMSO was added to 5 μL of the compound), a total of 9 gradients, numbered 3 to 11.
(§3) (Unless otherwise specified, the following steps need to be carried out on ice) • (4) The buffer provided in the kit (Cisbio, Cat. No. 62TK0PEB) was used to continuously serially dilute the solutions numbered from 3 to 11 with a dilution factor of 20 times (that is, adding 19 μL of buffer to the solutions numbered from 3 to 11). At this time, the final concentration range of the test compound in the system No. 3 to 11 was 3200 nM˜0.008 nM (9 gradients), and the final concentration of DMSO was 2%. • (5) 9 compound solutions of gradient concentration in step (4) were added into a 384-well plate in order according to their concentration at 4 μL per well, and two duplicate wells were set. • (6) 2 μL of human RET protein was added to each well and incubated on ice for 10 minutes. • (7) 2 μL of ATP (Sigma #A7699) and 2 μL of biotinylated polypeptide substrate (Cisbio, Cat. No. 62TK0PEB) were added to each well to start the phosphorylation reaction, and incubated at 37° C. for half an hour. • (8) 5 μL of anti-phosphotyrosine antibody coupled with europium compound (provided in the kit, Cat. No. 62TK0PEB) and 5 μL of streptavidin coupled with modified allophycocyanin XL665 (Cisbio, Cat. No. 62TK0PEB) were added to each well. • (9) The plate was continued to incubate for 1 hour at room temperature. After the incubation, the TF-FRET mode of the microplate reader (BMG Labtech, model: FLUOStar Omega) was adopted to measure the fluorescence intensity at an excitation wavelength of 304 nm and emission wavelengths of 615 nm and […] in each well. The ratio would be calculated automatically. • (10) By comparing the fluorescence intensity ratio in the control group, the inhibition rate of the compound at each concentration was calculated, and GraphPad Prism 5 was used to perform curve fitting with logarithmic concentration-inhibition rate to calculate the IC50 value of the compound.
The selected control kinase is another receptor tyrosine kinase, KDR, with similar structure to RET kinase, purchased from Carna bioscience (Japan, Cat. No. 08-191-5 μg). The step of gradient dilution was the same as that of RET kinase, and the final concentration range of the test compound in the reaction system was 16000 nM˜0.04 nM (No. 2-10 solutions were used for the gradient dilution in step 4). Other reaction conditions were the same as above, and the final concentration of DMSO was 2%. The calculation method for the IC50 value of KDR kinase inhibition by the test compound was the same as the calculation method for the IC50 value of RET kinase inhibition.
On the technique in general: Time-resolved FRET reads energy transfer from a long-lived donor to a nearby acceptor.

Test [1] concerns the target Human RET protein (RET kinase) (Homo sapiens (Human), UniProt P07949). Put plainly: RET kinase activity, HTRF KinEASE-TK TR-FRET assay. In kind it is biochemical. Particulars: inhibition of RET kinase; 9 concentrations 3200 nM~0.008 nM, 2% DMSO. The procedure:
Test Example 1. Determination of the Activity of the Compound of the Present Disclosure on RET Kinase
as §1, §2
Note: No. 2 was not used for the dilution in step (4).
as §3

Sequence of Human RET protein (RET kinase) (P07949 29-1114): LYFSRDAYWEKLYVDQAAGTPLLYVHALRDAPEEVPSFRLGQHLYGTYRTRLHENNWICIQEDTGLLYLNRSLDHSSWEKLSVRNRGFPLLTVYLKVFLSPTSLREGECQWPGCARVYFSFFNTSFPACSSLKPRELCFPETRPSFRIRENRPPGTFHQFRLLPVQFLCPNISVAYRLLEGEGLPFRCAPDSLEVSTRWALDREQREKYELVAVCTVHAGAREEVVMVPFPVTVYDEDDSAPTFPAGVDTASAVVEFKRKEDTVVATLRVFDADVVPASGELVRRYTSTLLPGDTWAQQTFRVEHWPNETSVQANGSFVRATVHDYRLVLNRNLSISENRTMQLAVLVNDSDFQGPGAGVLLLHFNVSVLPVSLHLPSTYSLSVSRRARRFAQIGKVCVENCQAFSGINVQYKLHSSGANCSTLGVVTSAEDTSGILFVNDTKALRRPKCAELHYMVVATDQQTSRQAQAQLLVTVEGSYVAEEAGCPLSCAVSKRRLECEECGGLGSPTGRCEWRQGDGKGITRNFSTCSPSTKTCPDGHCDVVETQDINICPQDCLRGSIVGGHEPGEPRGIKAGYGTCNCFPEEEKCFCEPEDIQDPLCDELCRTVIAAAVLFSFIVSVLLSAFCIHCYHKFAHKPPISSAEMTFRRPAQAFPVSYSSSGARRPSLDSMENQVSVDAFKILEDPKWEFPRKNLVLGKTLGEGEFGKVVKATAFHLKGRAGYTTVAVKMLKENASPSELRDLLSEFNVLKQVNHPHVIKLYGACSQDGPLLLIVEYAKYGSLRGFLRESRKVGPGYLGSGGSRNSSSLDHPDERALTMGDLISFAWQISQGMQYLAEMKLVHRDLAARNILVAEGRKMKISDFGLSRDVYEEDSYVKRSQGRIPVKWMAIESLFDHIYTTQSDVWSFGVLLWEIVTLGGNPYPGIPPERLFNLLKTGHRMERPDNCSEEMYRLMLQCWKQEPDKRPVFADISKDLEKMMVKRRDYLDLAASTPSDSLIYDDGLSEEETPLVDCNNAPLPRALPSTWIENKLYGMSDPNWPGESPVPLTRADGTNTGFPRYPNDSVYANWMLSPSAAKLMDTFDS
Sequence of KDR kinase (P35968 20-1356): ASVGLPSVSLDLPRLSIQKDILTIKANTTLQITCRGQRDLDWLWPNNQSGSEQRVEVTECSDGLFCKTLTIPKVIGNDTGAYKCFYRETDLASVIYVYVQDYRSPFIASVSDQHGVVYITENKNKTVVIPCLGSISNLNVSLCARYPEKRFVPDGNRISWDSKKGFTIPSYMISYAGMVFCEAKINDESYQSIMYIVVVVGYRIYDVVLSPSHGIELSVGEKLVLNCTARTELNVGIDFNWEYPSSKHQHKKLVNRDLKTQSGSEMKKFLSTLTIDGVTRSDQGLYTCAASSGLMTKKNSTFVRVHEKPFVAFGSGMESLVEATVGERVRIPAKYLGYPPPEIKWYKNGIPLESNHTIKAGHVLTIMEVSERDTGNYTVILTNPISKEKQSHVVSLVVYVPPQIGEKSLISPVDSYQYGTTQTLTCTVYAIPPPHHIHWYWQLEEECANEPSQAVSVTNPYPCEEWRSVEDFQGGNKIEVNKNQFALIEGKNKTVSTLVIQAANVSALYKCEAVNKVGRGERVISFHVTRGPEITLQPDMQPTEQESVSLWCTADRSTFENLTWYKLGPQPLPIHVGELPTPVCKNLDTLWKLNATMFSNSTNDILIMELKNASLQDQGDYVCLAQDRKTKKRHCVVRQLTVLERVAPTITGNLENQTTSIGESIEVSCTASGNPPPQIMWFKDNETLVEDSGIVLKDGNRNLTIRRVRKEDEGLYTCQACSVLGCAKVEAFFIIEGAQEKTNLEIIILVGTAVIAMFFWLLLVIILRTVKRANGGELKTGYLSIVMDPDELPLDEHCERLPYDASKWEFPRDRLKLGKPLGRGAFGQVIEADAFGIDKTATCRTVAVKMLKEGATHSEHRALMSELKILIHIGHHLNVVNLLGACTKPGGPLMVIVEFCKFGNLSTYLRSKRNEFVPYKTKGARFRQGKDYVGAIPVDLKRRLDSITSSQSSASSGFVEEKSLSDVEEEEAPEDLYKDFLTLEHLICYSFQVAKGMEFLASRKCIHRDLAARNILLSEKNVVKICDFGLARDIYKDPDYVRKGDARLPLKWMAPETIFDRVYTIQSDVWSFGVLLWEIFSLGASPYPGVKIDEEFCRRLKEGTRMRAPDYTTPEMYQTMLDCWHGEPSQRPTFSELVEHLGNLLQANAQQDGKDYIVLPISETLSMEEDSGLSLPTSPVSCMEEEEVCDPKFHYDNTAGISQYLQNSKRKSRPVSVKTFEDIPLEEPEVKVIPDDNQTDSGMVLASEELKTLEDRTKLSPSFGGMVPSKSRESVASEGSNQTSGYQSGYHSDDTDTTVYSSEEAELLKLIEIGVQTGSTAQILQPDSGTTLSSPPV

Turning to `Cc1cc(Nc2cc(C)[nH]n2)nc(N2CCC(C(=O)N[C@@H](C)c3ccc(-n4cc(F)cn4)nc3)CC2)c1` [Compound 164, reference compound], the half-maximal inhibitory concentration (IC50) against KDR kinase came out at 2300 nM; in test [1] it was 73 nM.
On the same counts, the results for `Cc1cc(Nc2cc(C)[nH]n2)nc(N2CCN(C(=O)c3ccc(-n4cc(F)cn4)nc3)CC2)n1` [Compound I-1, (6-(4-fluoro-1H-pyrazol-1-yl)pyridin-3-yl)(4-(4-methyl-6-((5-methyl-1H-pyrazol-3-yl)amino)pyrimidin-2-yl)piperazin-1-yl)methanone] are 1130 nM and 12.5 nM.
Taken in the same sequence, the figures for `Cc1cc(Nc2cc(C)[nH]n2)nc(N2CCN(C(=O)c3ccc(-n4cc(F)cn4)nc3)[C@@H](C)C2)n1` [Compound I-2, (S)-(6-(4-fluoro-1H-pyrazol-1-yl)pyridin-3-yl)(2-methyl-4-(4-methyl-6-((5-methyl-1H-pyrazol-3-yl)amino)pyrimidin-2-yl)piperazin-1-yl)methanone] were 851 nM and 11.8 nM.
Consider `Cc1cc(Nc2cc(C)[nH]n2)nc(N2CC3CCC(C2)N3C(=O)c2ccc(-n3cc(F)cn3)nc2)n1` [Compound I-4, (6-(4-fluoro-1H-pyrazol-1-yl)pyridin-3-yl)(3-(4-methyl-6-((5-methyl-1H-pyrazol-3-yl)amino)pyrimidin-2-yl)-3,8-diazabicyclo [3.2.1]octane-8-yl) methanone], for which the IC50 is 80 nM at KDR kinase and 1.4 nM in test [1].
On the same counts, the results for `Cc1cc(Nc2nc(N3CC4CCC(C3)N4C(=O)c3ccc(-n4cc(F)cn4)nc3)nc3ccccc23)n[nH]1` [Compound I-5, (6-(4-fluoro-1H-pyrazol-1-yl)pyridin-3-yl)(3-(4-((5-methyl-1H-pyrazol-3-yl)amino)quinazoline-2-yl)-3,8-diazabicyclo[3.2.1]octane-8-yl)methanone] are 149 nM and 6.2 nM.
On the same counts, the results for `Cc1cc(Nc2cc(C)[nH]n2)nc(N2CC3COCC(C2)N3C(=O)c2ccc(-n3cc(F)cn3)nc2)n1` [Compound I-7, (6-(4-fluoro-1H-pyrazol-1-yl)pyridin-3-yl)(7-(4-methyl-6-((5-methyl-1H-pyrazol-3-yl)amino)pyrimidin-2-yl)-3-oxa-7,9-diazabicyclo [3.3.1]nonane-9-yl)methanone] are 391 nM and 10.3 nM.
Take `Cc1cc(Nc2cc(C)[nH]n2)nc(N2C3CCC2CN(C(=O)c2ccc(-n4cc(C#N)cn4)nc2)C3)n1` [Compound I-9]: the IC50 on KDR kinase was found to be 304 nM; in test [1], 8.6 nM.
On to `Cc1cc(Nc2cc(C)[nH]n2)nc(N2CC3CCC(C2)N3C(=O)c2ccc(N3CC4C(C3)C4(C)C)nc2)n1` (centres unmarked) [Compound I-10, (6-(6,6-dimethyl-3-azabicyclo [3.1.0]hexane-3-yl)pyridin-3-yl)(3-(4-methyl-6-((5-methyl-1H-pyrazol-3-yl)amino)pyrimidin-2-yl)-3,8-diazabicyclo[3.2.1]octane-8-yl)methanone], for which the results for the IC50 (on KDR kinase; in test [1]) were 1550 nM and 7.3 nM, respectively.
On the same counts, the results for `COC(=O)c1cc(Nc2cc(C)[nH]n2)nc(N2CC3CCC(C2)N3C(=O)c2ccc(-n3cc(F)cn3)nc2)n1` [Compound I-11, Methyl 2-(8-(6-(4-fluoro-1H-pyrazol-1-yl)nicotinoyl)-3,8-diazabicyclo[3.2.1]octane-3-yl)-6-((5-methyl-1H-pyrazol-3-yl)amino)pyrimidin-4-carboxylate] are 1020 nM and 24.7 nM.
As for `Cc1cc(Nc2cc(C)[nH]n2)nc(N2CCN(C(=O)c3ccc(-n4cc(F)cn4)nc3)C3(CC3)C2)n1` [Compound I-12, (6-(4-fluoro-1H-pyrazol-1-yl)pyridin-3-yl)(7-(4-methyl-6-((5-methyl-1H-pyrazol-3-yl)amino)pyrimidin-2-yl)-4,7-diazaspiro[2.5]octane-4-yl)methanone], the IC50 against KDR kinase turned out to be 180 nM; in test [1], 0.6 nM.
